The target in test [1] is T1, P2Y receptor (turkey erythrocyte membranes) (Meleagris gallopavo, UniProt P49652).
T1 construct: from tissue; host or cells: washed turkey erythrocytes, ghosts prepared by hypotonic lysis
Nature of the test: Stimulation of phospholipase C (inositol phosphate formation) in turkey erythrocyte membranes. The format is biochemical. As to conditions: for maximal level (100%) of [3H]inositol phosphate accumulation: with GTPγS and maximal concentration of agonist. The essentials:
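Erythrocytes were labelled 18-24 h at 37 °C with [3H]myoinositol, and ghosts were made by hypotonic lysis. Ghosts (≈175 μg protein) were incubated 5 min at 30 °C in Hepes buffer pH 7.0 with 1 μM GTPγS and nucleotide analogs. Total [3H]inositol phosphates were purified by anion exchange; K0.5 averaged from 3-8 dose-response curves.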

The test system of test [2] is P2Y receptor (aorta endothelium). The experiment in a line: Relaxation of noradrenalin-contracted rabbit aorta. As to conditions: rabbit aorta; log molar units.
The target in test [3] is T2, P2X receptor (vas deferens) (Cavia porcellus, UniProt A0A286XVA9).
T2 sequence (A0A286XVA9 1-399): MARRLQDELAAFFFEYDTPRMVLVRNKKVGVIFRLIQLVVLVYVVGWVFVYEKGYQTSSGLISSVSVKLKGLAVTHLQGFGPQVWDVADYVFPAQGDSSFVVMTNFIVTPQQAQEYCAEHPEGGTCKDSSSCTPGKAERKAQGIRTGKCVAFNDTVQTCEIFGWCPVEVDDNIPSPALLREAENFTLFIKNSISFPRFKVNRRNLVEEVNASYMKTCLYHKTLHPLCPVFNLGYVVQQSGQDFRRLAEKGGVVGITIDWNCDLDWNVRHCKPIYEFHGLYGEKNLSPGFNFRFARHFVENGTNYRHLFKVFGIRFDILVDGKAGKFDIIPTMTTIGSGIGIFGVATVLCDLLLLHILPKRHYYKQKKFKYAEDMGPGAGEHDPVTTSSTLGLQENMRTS
Nature of the test: Contraction of guinea pig isolated vas deferens.

The target in test [4] is T3, P2X receptor (urinary bladder) (Cavia porcellus, UniProt A0A286XVA9).
T3 construct: guinea pig isolated urinary bladder detrussor muscle; from tissue; host or cells: guinea pig isolated urinary bladder detrusor muscle
Nature of the test: Contraction of guinea pig isolated urinary bladder detrussor muscle. As to conditions: for activity/potency in words, bladder: guinea pig urinary bladder.
Source text: Muscular relaxation/contraction: Relaxant responses mediated via P2Y receptors were examined in guinea pig taenia coli, rabbit aorta, and rabbit mesenteric artery, as described by Hoyle et al. (Br. J. Pharmacol., 107, 367-374 (1992a)), Burnstock et al., (Br. J. Pharmacol., 90, 383-391 (1987a)), and Rubino et al., (Eur. J. Pharmacol., 212, 237-240 (1992)). Contractile responses mediated via P2X receptors were examined in the guinea pig urinary bladder and vas deferens, and rabbit saphenous artery, also using standard methods (see Hoyle et al., supra., 1992; Hoyle et al., Br. J. Pharmacol., 99, 617-621 (1990); and Burnstock et al., Br. J. Pharmacol., 90, 111-120 (1987b)).
In FIG. 14, the x-axis is also marked in units of the negative log of the molar concentration of applied putative P2Y receptor agonists and the y-axis is marked in units of the percentage relaxation of the 1 μM noradrenalin-induced contraction of rabbit aorta endothelium. In FIGS. 15-16, the x-axis is marked in units of the negative log of the molar concentration of applied putative p^2X receptor agonists and the y-axis is marked in units of the percentage contraction relative to a standard dose of KCl (i.e., 60 mM), as assessed in guinea pig isolated urinary bladder detrussor muscle (FIG. 15) and guinea pig isolated vas deferens (FIG. 16).

The subject of test [5] is P2X receptor (rat urinary bladder membranes). Nature of the test: Displacement of [3H]-α,β-methylene-ATP from rat urinary bladder membranes. It counts as binding. Particulars: about 10 nM [3H]-α,β-MeATP. As for the experimental part:
Certain ATP analogs known to bind to P2Y receptors, as disclosed in Examples 4-9, were tested on membrane preparations of urinary bladder, which is known to include P2X receptors (See, e.g., Lukacsko et al., Eur. J. Pharmacol., 80, 401-406 (1982)). The assay used is predicated on the specific displacement of […] known to bind at the P2X receptor, namely α,β-methylene-ATP.
For this assay, male Wistar rats (200-250 g) were killed by asphyxiation with CO2. […] The pellets were washed and suspended in buffer A and the protein content was determined using the method of Peterson (Anal. Biochem., 83, 346-356 (1977)).
Displacement experiments were carried out by incubating the membrane preparations with about 10 nM [^3 H]-α,β-MeATP and various concentrations of an unlabeled ligand in buffer A at 4° C. for 120 min (final volume 0.5 ml). […] The filters were washed with 2 aliquots of 5 ml ice-cold 5 mM Tris/HCl buffer, pH 7.4, dried under an infrared lamp, and then the radioactivity trapped in the filters was measured in a Beckman SC6100 I scintillation counter with an efficiency of about 56 to 61%. Non-specific binding was determined by including 100 μM β,γ-methylene-ATP in the incubation mixture.
A general note: Loss of bound radioactivity is the signal in a displacement assay; it reports binding, not function.

The mark [6] stands for this setting: turkey erythrocyte membranes, mean ± S.E.M. for at least 2 determinations, read-out: phosphatidyl inositol metabolism (K0.5, nM) erythrocyte.

SMILES strings stand for the structures. Values joined by “and” are separate entries in the source; they are usually repeats but may differ in a detail not shown here. Equal values may be shown once. “Also recorded” adds a separate entry of the source. Read-outs that look alike come from different tables or passages of the source.

T1 sequence (P49652 whole entry): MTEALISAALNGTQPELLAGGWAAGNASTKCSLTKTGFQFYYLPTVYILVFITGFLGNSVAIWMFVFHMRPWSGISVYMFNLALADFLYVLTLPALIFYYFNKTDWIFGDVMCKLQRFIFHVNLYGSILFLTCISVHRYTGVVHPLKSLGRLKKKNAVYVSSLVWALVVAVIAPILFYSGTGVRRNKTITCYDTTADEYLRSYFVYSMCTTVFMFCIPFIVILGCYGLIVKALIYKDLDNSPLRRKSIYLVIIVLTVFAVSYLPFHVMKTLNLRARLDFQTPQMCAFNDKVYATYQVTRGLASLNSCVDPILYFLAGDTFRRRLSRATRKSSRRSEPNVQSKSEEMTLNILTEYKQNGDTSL

With `N#CCCCCCCSc1nc(N)c2ncn([C@@H]3O[C@H](COP(=O)(O)OP(=O)(O)OP(=O)(O)O)[C@@H](O)[C@H]3O)c2n1` [2-(6-Cyanohexylthio)-ATP, 2-(6-Cyanohexylthio)adenosine-5'-triphosphate], in test [1] (turkey erythrocyte membranes), the “activity/potency in words, turkey erythrocyte” value was “at least two orders of magnitude more potent; also recorded: about three orders of magnitude more potent”. Also, the EC50 in test [1] (setting [6]) is 10 ± 5 nM; in test [1] (turkey erythrocyte membranes, read-out: K0.5), 5 to 30 nM and ~10 nM. In addition, the “maximal level (100%) of [3H]inositol phosphate accumulation” value in test [1] amounted to 6000 cpm. Besides, in test [2], the “relaxation pD2, aorta” value is on record as 6.9. The “activity/potency in words, vas deferens” value in test [3] is “potent agonists in the vas deferens and urinary bladder”. The “activity/potency in words, bladder” value in test [4] was “it produced tonic contractions rather than the phasic; also recorded: much less potent than ATP under the same conditions”; in test [4] (listed as 2-(6-cyanohexyl)thio ATP), “produced tonic contractions rather than the typical phasic contractions of ATP”; in test [4] (listed as 2-(6-cyanohexyl)thio-ATP), “produced contractions that were less tonic, and with a lower potency than ATP under the same conditions”; in test [4] (listed as 2-(6-cyanohexylthio)-ATP) it was “potent agonists in the vas deferens and urinary bladder”. Besides, in test [4] (guinea pig urinary bladder P2X receptors), the “times more potent than ATP, bladder” value is listed as “approximately 100 times”.
For the compound `C=CCCCCSc1nc(NC)c2ncn([C@@H]3O[C@H](COP(=O)(O)OP(=O)(O)OP(=O)(O)O)[C@@H](O)[C@H]3O)c2n1` [N^6 -Me-2-(5-hexenyl)-thio-ATP, N^6 -Me-2-(5-hexenylthio)adenosine 5'-triphosphate], the “fold diminished potency upon N6-methylation, turkey erythrocyte” value in test [1] (relative to 2-(5-hexenyl)thio-ATP) is reported as 2.6 -fold. The EC50 in test [1] (setting [6]) came out at 26 ± 7 nM; in test [1] (turkey erythrocyte membranes, read from graph, read-out: K0.5), 10 nM. Besides, in test [1], the “maximal level (100%) of [3H]inositol phosphate accumulation” value turned out to be 9150 cpm. Further, the “relaxation pD2, aorta” value in test [2] was 5.6. Further, in test [5], the “P2X binding in words” value was “two orders of magnitude greater concentration”.

Values taken from US5620676A, “Biologically active ATP analogs” (priority 1995, dated 1997).
